Reference: patent EP2210584A1, “Stable polymeric composition comprising an epothilone and an amphiphilic block copolymer” (priority 2009, dated 2010)

Assay: Detection of degradation products of sagopilone by HPLC chromatogram
Assay type: physicochemical
Conditions: storage of 24 hours at 4°C
Experimental: The method for measuring the sagopilone content of the micellar dispersions as well as the detection of degradation products is determined by High Performance Liquid Chromatography. The analysis was done on a Agilent 1100 Series chromatography system consisting of a quaternary pump, an autoinjector, a column heater and a UV-detector from Agilent Technologies, Santa Clara, USA .

degradation of Sagopilone solubilized within the polymeric micelles: did not degrade
Structure (SMILES): C=CC[C@H]1C(=O)C(C)(C)[C@@H](O)CC(=O)O[C@H](c2ccc3sc(C)nc3c2)C[C@@H]2O[C@]2(C)CCC[C@H](C)[C@@H]1O [Sagopilone, (1S,3S,7S,10R,11S,12S,16R)-7,11-dihydroxy-10-(prop-2-en-1-yl)-3-(2-methylbenzothiazol-5-yl)-8,8,12,16-tetramethyl-4,17-dioxabicyclo[14.1.0]heptadecane-5,9-dione]
